Activity and IC50 data for eleven compounds are collected here from ChEMBL document CHEMBL4020791, “Synthesis and anti-proliferative activity of a small library of 7-substituted 5H-pyrrole [1,2-a][3,1]benzoxazin-5-one derivatives” (Bioorg Med Chem Lett, 2017).

Test [1] relates to MDA-MB-231. Briefly: Antiproliferative activity against human MDA-MB-231 cells at 50 uM after 72 hrs by MTT assay. The format is functional, cell-based. For orientation: Tetrazolium dyes change colour on reduction, which living cells bring about.
Test [2] relates to MCF7. Briefly: Antiproliferative activity against human MCF7 cells at 50 uM after 72 hrs by MTT assay. The format is functional, cell-based.
Test [3] has as its system SK-BR-3. Briefly: Antiproliferative activity against human SKBR3 cells at 50 uM after 72 hrs by MTT assay. In kind it is functional, cell-based.
The next test has as its system MCF-10A. Briefly: Cytotoxicity against human MCF10A after 72 hrs by MTT assay. The format is cell-based.
The subject of test [4] is SK-BR-3. Briefly: Cytotoxicity against human SKBR3 cells assessed as reduction in cell viability after 72 hrs by MTT assay. The format is functional, cell-based. As to conditions: SK-BR-3, 72 h.
The test system of test [5] is MCF7. Briefly: Cytotoxicity against human MCF7 cells assessed as reduction in cell viability after 72 hrs by MTT assay. In kind it is functional, cell-based. As to conditions: MCF7, 72 h.
Test [6] concerns MDA-MB-231. Briefly: cells. As to conditions: Homo sapiens, MDA-MB-231, 72 h.
Description: Cytotoxicity against human MDA-MB-231 cells assessed as reduction in cell viability after 72 hrs by MTT assay
Test [7] has as its system MCF7. Briefly: Cell cycle arrest in human MCF7 cells assessed as accumulation at G2/M phase at 5 uM after 24 hrs by propidium iodide-staining based FACS analysis (reference value: 6.3%). The format is functional. On the technique in general: In flow cytometry, cells or beads pass a laser one at a time.
In test [8] the test system is MCF7. Briefly: Cell cycle arrest in human MCF7 cells assessed as accumulation at S phase after 24 hrs by propidium iodide-staining based FACS analysis. In kind it is functional.
The subject of test [9] is MCF7. Briefly: Induction of apoptosis in human MCF7 cells assessed as increase in cleaved PARP-1 expression at 1 to 10 uM after 24 hrs by immunoblot method. In kind it is functional, cell-based. In general terms: A western blot detects proteins with antibodies after separation by electrophoresis.
The subject of test [10] is MCF7. Briefly: Cell cycle arrest in human MCF7 cells assessed as accumulation at G0/G1 phase at 10 uM after 24 hrs by propidium iodide-staining based FACS analysis (reference value: 71.1%). In kind it is functional.
Test [11] relates to MCF7. Briefly: Cell cycle arrest in human MCF7 cells assessed as accumulation at S phase at 10 uM after 24 hrs by propidium iodide-staining based FACS analysis (reference value: 22.6%). In kind it is functional.
The test system of test [12] is MCF7. Briefly: Cell cycle arrest in human MCF7 cells assessed as accumulation at S phase at 5 uM after 24 hrs by propidium iodide-staining based FACS analysis (reference value: 22.6%). The format is functional.
Test [13] concerns MCF7. Briefly: Increase in p53 expression in human MCF7 cells at 1 to 10 uM after 24 hrs by immunoblot method. In kind it is functional, cell-based.
Test [14] concerns MCF7. Briefly: Increase in p21waf1/cip1 protein expression in human MCF7 cells at 1 to 10 uM after 24 hrs by immunoblot method. The format is functional, cell-based.
Test [15] relates to MCF7. Briefly: Cell cycle arrest in human MCF7 cells assessed as accumulation at G2/M phase at 10 uM after 24 hrs by propidium iodide-staining based FACS analysis (reference value: 6.3%). In kind it is functional.
The test system of test [16] is MCF7. Briefly: Cell cycle arrest in human MCF7 cells assessed as accumulation at G0/G1 phase at 5 uM after 24 hrs by propidium iodide-staining based FACS analysis (reference value: 71.1%). The format is functional.
The test system of test [17] is MCF7. Briefly: Change in cyclin D1 levels in human MCF7 cells at 1 to 10 uM after 24 hrs by Western blot analysis. The format is functional, cell-based.

pIC50: −log10 of the molar value. The source made the active and inactive calls. The rule behind the calls is not given here.

As for `O=c1oc2cccn2c2cc3ccccc3cc12`, the outcome with MDA-MB-231 [1], in the test with MCF7 [2] and in the test with SK-BR-3 [3] was Active.

In the case of `O=c1oc2cccn2c2ccc(Br)cc12`, the pIC50 is 3.58 in the test on MCF-10A, 3.90 in the test with SK-BR-3 [4], 3.91 with MCF7 [5] and 3.66 in the test on MDA-MB-231 [6]. Also, the outcome in the test on MDA-MB-231 [1], in the test on MCF7 [2] and in the test with SK-BR-3 [3] was Active.

For the compound `O=c1oc2cccn2c2ccc(-c3ccccc3)cc12`, the pIC50 with MCF-10A was 3.74; with SK-BR-3 [4] it was 4.21; with MCF7 [5] it was 4.18; in the test on MDA-MB-231 [6] it was 4.03.

In the case of `O=c1oc2cccn2c2ccc(-c3ccc(C(F)(F)F)nc3)cc12`, the pIC50 with MCF-10A is 3.81; in the test on SK-BR-3 [4], 4.33; with MCF7 [5], 4.37; in the test with MDA-MB-231 [6], 4.14.

Turning to `COC(=O)c1ccc(-c2ccc3c(c2)c(=O)oc2cccn23)cc1`, the pIC50 with MCF-10A was 3.79; in the test on SK-BR-3 [4], 4.23; in the test on MCF7 [5], 4.31; with MDA-MB-231 [6], 4.19.

For the compound `O=c1oc2cccn2c2ccc(-c3ccc(-c4ccccc4)cc3)cc12`, the Activity is 7.8% with MCF7 [7]; “Dose-dependent effect” with MCF7 [8]; 72.8% in the test on MCF7 [10]; 18.8% with MCF7 [11]; 15.6% with MCF7 [12]; 8.4% in the test with MCF7 [15]. For the same compound, the Activity in the test on MCF7 [16] came to 76.6%. Moreover, the pIC50 in the test with MCF-10A is < 3.60; with SK-BR-3 [4], 5.04; with MCF7 [5], 5.04; in the test with MDA-MB-231 [6], 5.00. In addition, the result with MCF7 [9], with MCF7 [13], in the test with MCF7 [14] and in the test on MCF7 [17] was Active.

For `O=c1oc2cccn2c2ccc(-c3cccnc3O)cc12`, the pIC50 is 3.81 in the test with MCF-10A, 4.14 with SK-BR-3 [4], 4.22 in the test with MCF7 [5] and 4.10 in the test on MDA-MB-231 [6].

Consider `COc1cccc2c1C(=O)c1c(O)c3c(c(O)c1C2=O)C[C@@](O)(C(=O)CO)C[C@@H]3O[C@H]1C[C@H](N)[C@H](O)[C@H](C)O1` [DOXORUBICIN], for which the pIC50 is 4.90 in the test with MCF-10A, 5.07 in the test on SK-BR-3 [4] and 5.00 in the test with MDA-MB-231 [6].

For the compound `O=c1oc2cccn2c2ccccc12`, the result with MDA-MB-231 [1], in the test on MCF7 [2] and in the test with SK-BR-3 [3] was Active.

In the case of `O=c1oc2cccn2c2ccc(-c3ccc(O)cc3)cc12`, the pIC50 in the test with MCF-10A was 4.10; in the test with SK-BR-3 [4] it was 4.57; with MCF7 [5], 4.73; with MDA-MB-231 [6], 4.51.

As to `O=c1oc2cccn2c2ncccc12`, the result in the test with MDA-MB-231 [1], in the test on MCF7 [2] and in the test on SK-BR-3 [3] was Active.

In general, pIC50 refers to the negative decadic logarithm of the IC50, by convention in mol/L.
